According to EP2518139A1, “Use of indirubin derivatives for producing pluripotent stem cells” (Universitätsklinikum Jena, priority 2011, dated 2012):
Residues, ends and D or L forms follow the SMILES beside them. *: point of attachment. Cbz = O=C(OCc1ccccc1)*

What was measured:
[1] = test system: BMP- and TGFß-relative R-Smads; assay: Immunoblot of BMP- and TGFß-relative R-Smads in HeLa cells (TGFß or FCS stimulation); type: cell-based, human; conditions: 24h, E738 (1µM), Bio (5µM), DM (1µM), Repsox (10µM); for P- and pan-Smads (R-Smads): TGFß (20ng/mL)
Smad1/5/8 = assay: Immunoblot of p-Smad1/5/8 and pan-Smad1/5/8 in HeLa cells; type: cell-based, human
p38 = conditions: reported by Zhu et al.; cited from earlier work
[2] = test system: mono-, di- and poly-ubiquitins; assay: Immunoblot of ubiquitins in HeLa cells; type: cell-based, human; conditions: BMP-stimulated HeLa, 24h; MG132 5µM, E738 (1µM)
Description: Western blot:: Cell extracts were homogenized in Urea-Lysis buffer (1mM EDTA,0.5% Triton X-100), 5mM NaF, 6M Urea, 1mM Na3VO4, 10µg/mL Pepstatin, 100µM PMSF and 3µg/mL Aprotinin in PBS). Enhanced chemiluminescence (ECL) Western blot analysis was performed. 20-40µg of total protein was resolved on 10% SDS-PAGE gels and immunoblotted with specific antibodies. Primary antibodies were incubated at a 1:1,000 dilution in TBS (pH 7.5) with 0.1% Tween-20 and 5% BSA/nonfat milk with gentle agitation overnight at 4°C. The proper secondary antibodies were incubated in TBS (pH 7.5) with 5% BSA/nonfat milk and 0.1 % Tween-20 at a 1:5,000 dilution for 1 h at room temperature.
Ubiquitin-proteasome degradation system is the major route to protein degradation. To identify if indirubin-induced degradation is conducted by proteasome, we utilized MG132, a general proteasome inhibitor, to characterize the role of proteasome in degradation. We found 5µM MG132 was sufficient to rescue the E738 mediated Smad1/5/8 […] 24h after treatment (Fig. 5E and 5F). […] Thus we interpreted that E738 might be able to promote degradation of polymerased ubiquintins through activating the formation of complexes with certain substrates, speculatively like Smad1/2/3/5/8, leading to accelerate the recycling of mono-ubiquitin, while MG132 blocked the degradation of these complexes and arrest such recycling. […]

[3] = BMP2 (100ng/mL), 24h, compound at 5µM

SMILES: O=C1Nc2cc(Br)ccc2/C1=C1/Nc2ccccc2/C1=N\O [BIO, 6-Bromo-indirubin-3'-oxim, reference compound]
- P- and pan-Smads (R-Smads) [1]: attenuated effects
- level of pan Smad1/5/8 (Smad1/5/8; [3]): slightly decreased pan-Smad1/5/8
- phosphorylation (activation) of Smad1/5/8 (Smad1/5/8; [3]): clearly blocked the activation of Smad1/5/8

SMILES: C[C@@H]1C[C@@H]([C@H](O)CC2CC(=O)NC(=O)C2)C(=O)[C@@H](C)C1 [CHX, cyclohexamide, reference compound]
- signal of Smad1/5/8 (Smad1/5/8; BMP2, CHX (10µM), 24h): weaker signal of Smad1/5/8
- influence on the E738 induced degradation of Smad1/5/8 (Smad1/5/8; BMP2, mixture of E738 (1µM) and CHX 10µM, 24h): no influence on the degradation

SMILES: O=C1Nc2ccccc2/C1=C1/Nc2ccccc2/C1=N\O [E231, Indirubin-3'-oxim]
- p-Smad1/5/8 at C-termini and pan-Smad1/5/8 levels (Smad1/5/8; BMP2 (100ng/mL), 24h, compound at 1µM): slightly decreased
- level of pan Smad1/5/8 (Smad1/5/8; [3]): induced the reduction only partly
- phosphorylation (activation) of Smad1/5/8 (Smad1/5/8; [3]): strongly blocked the phosphorylation
- phosphorylation of p38 (p38): can stimulate the phosphorylation of p38

SMILES: [Cl-].[Li+] [LiCl, reference compound]
- BMP activated Smad1/5/8 and level of pan Smad1/5/8 (Smad1/5/8; BMP, LiCl (30mM), 24h): can attenuate BMP activated Smad1/5/8, but not change the level of pan Smad1/5/8

SMILES: CC(C)C[C@@H](C=O)NC(=O)[C@H](CC(C)C)NC(=O)[C@H](CC(C)C)NC(=O)OCc1ccccc1 [MG132, reference compound] (Cbz-Leu-Leu-Leu-aldehyde)
- concentration sufficient to rescue the E738 mediated Smad1/5/8 ubiquitination (Smad1/5/8; BMP, 24h after treatment): 5 µM
- p-Smad1/5/8 (Smad1/5/8; BMP, MG (5µM) with/without E738): accumulation of p-Smad1/5/8 was observed
- mono-, di- and poly-ubiquitins [2]: significantly stabilized mono-, di- and poly-ubiquitins

SMILES: Cc1cccc(-c2[nH]ncc2-c2ccc3ncccc3n2)n1 [Repsox]
- activation of both types of R-Smads ([1]; FCS 10%): only partly
- P- and pan-Smads (R-Smads) [1]: inhibited TGFß-mediated activation of Smad3, but not Smad1/5/8 or total R-Smads protein

SMILES: C[S+]([O-])c1ccc(-c2nc(-c3ccncc3)c(-c3ccc(F)cc3)[nH]2)cc1 (stereo not shown) [SB203580, reference compound]
- level of pan Smad1/5/8 (Smad1/5/8; BMP, MAPK inhibitor alone or in combination with E738): neither alter the level of pan Smad1/5/8 alone, nor attenuate the E738-mediated degradation in combination with E738
